{"source": "patent US20240140895A1", "about": "“NOVEL AROMATIC MOLECULES” (XENIOPRO GmbH, priority 2018, published 2024)", "system": "Notch signaling (human Notch1 receptor, hNotch1ΔE)", "assay": "Notch reporter assay (dual luciferase, HeLa cells transfected with hNotch1ΔE)", "format": "cell-based", "settings": "10 μM", "excerpt": "The activation level of Notch signaling can be quantified in vitro reliably by measuring the expression levels of Notch specific target genes. This can be accomplished by the quantification of corresponding mRNA or protein of a particular Notch target gene. Alternatively, cells can be genetically modified to carry a luciferase gene as an artificial Notch target gene, which is expressed in dependence of Notch activity. In this setting, Notch signaling levels can be quantified by measuring the luciferase-derived bioluminescence values.\nAn according Notch-reporter assay, i.e. a luciferase-based luminescence readout, was used here to quantify the ability of the claimed compounds to augment Notch signaling in a cellular system. […] After 24 hours of transfection, the transfected cells were carefully detached from the dish using 0.5 mM EDTA in PBS and seeded into 96-well plates suitable for luminescence readouts (CORNING, #3610) at 10,000 cells per well. […] Directly after the lysis, first the Firefly and then the Renilla luciferase values were measured consecutively from the same well with a luminescence reader immediately after applying 15 μL per well each of the corresponding enzyme substrates needed to create the luminescence signals (Promega, Dual-Luciferase® Reporter Assay System, #E1910). […]"}
{"smiles": "Oc1ccc(C=Cc2cc(O)cc(O)c2)cc1", "note": "[RES, resveratrol, reference compound]", "values": [{"measurement": "Activity Range: weighted arithmetic mean (AVEw) of double-normalized Notch-reporter luminescence, relative to DMSO basis level 1.0", "value": "1.9 ± 0.5"}]}
